From article PMC7509852 (Biochemistry, 2020)

Assays:
[1] = biological target: T1, Cj1427 (Campylobacter jejuni, UniProt Q0P8I7); assay: UV-vis spectrum of bound cofactor; assay type: biochemical; details: NAD+-bound enzyme; 2.0 mM substrate; 50 mM HEPES/KCl pH 7.4, 30 °C
[2] = biological target: T1, Cj1427; assay: UV-vis loss of […] nm band; assay type: biochemical; details: NADH-bound enzyme; 2.0 mM substrate; 50 mM HEPES/KCl pH 7.4, 30 °C

T1 sequence (Q0P8I7 whole entry): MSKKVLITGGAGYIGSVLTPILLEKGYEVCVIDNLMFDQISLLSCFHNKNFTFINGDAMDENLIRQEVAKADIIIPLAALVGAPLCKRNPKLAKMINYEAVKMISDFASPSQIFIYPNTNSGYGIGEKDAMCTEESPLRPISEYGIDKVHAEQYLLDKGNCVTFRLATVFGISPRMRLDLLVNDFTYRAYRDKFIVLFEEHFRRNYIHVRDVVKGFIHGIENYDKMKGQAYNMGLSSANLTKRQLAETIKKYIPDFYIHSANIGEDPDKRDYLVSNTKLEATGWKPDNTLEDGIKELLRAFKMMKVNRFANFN

Compound | UV-vis spectrum of bound cofactor [1] | UV-vis loss of 350 nm band; ion exchange chromatography [2]
O=C(O)CC[C@H](O)C(=O)O [L-2-hydroxyglutarate] | Cj1427 with bound NAD^+ catalyzes the oxidation of L-2-hydroxyglutarate to α-ketoglutarate and NADH | –
O=C(O)CCC(=O)C(=O)O [α-ketoglutarate] | – | initially bound NADH was converted to NAD^+ in the presence of α-ketoglutarate
